Numbered stars: 1 amine (or outer) side, 2 acyl side, 3 side chain; on linkers, the order of the positions; unused ones are H or OH. Square brackets hold non-standard residues; d marks the D form. Side chains are listed from the residue outwards. Peptide text beside a SMILES is read from it. * marks the point of attachment. C18 diacid = O=C(O)CCCCCCCCCCCCCCCCC(=O)*; γGlu = O=C(O)[C@H](CCC(=O)[*:2])N[*:1]; AEEA = NCCOCCOCC(=O)O; Aib = CC(C)(N)C(=O)O

What is called EC50 is the concentration at which the effect is half-maximal. By IC50 is commonly meant the concentration needed to halve the response being measured.

The target in data set [1] is T1, human GLP-1 receptor (Homo sapiens, UniProt P43220).
T1 construct: expressed in transfected cells; host or cells: BHK cells (parent BHKTS13), clone FCW467-12A/KZ10-1, with CRE luciferase
Kind of data set: GLP-1 receptor potency, CRE luciferase reporter gene assay in BHK cells. The format is cell-based. The conditions noted are these: BHK cells expressing human GLP-1 receptor, read-out: EC50 GLP-1R. As to the method: The purpose of this example was to test the potency, of the glucagon derivatives of the invention, in vitro. The in vitro potency is the measure of human GLP-1 receptor or glucagon receptor activation, respectively, in a whole cell assay.
In vitro potency was determined by measuring the response of human GLP-1 or glucagon receptor, respectively, in a reporter gene assay. The assay was performed in a stably transfected BHK cell line that expresses either the human GLP-1 receptor or the human glucagon receptor and contains the DNA for the cAMP response element (CRE) coupled to a promoter and the gene for firefly luciferase (CRE luciferase). […] When assay incubation was completed, the luciferase substrate (luciferin) was added and the enzyme converted luciferin to oxyluciferin and produces bioluminescence. The luminescence was measured as the readout for the assay.
The cells used in this assay (clone FCW467-12A/KZ10-1) were BHK cells with BHKTS13 as a parent cell line. The cells were derived from a clone (FCW467-12A) that expresses the human GLP-1 receptor and were established by further transfection with
CRE luciferase to obtain the current clone.
The cells were cultured at 5% CO2 in DMEM medium with 10% FBS, 1×GlutaMAX, 1 mg/ml G418, 240 nM MTX (methotrexate) and 1% pen/strep (penicillin/streptomycin). They were aliquoted and stored in liquid nitrogen. Before each assay, an aliquot was taken up and washed three times in PBS before being suspended at the desired concentration in assay medium. For 96-well plates the suspension was made to give a final concentration of 5×10EE3 cells/well.
The following chemicals were used in the assay: Pluronic F-68 (10%) (Gibco 2404), ovalbumin (Sigma A5503), DMEM w/o phenol red (Gibco 11880-028), 1 M Hepes (Gibco 15630), Glutamax 100× (Gibco 35050) and steadylite plus (PerkinElmer 6016757).
Assay Medium consisted of DMEM w/o phenol red, 10 mM Hepes, lx GlutaMAX, 2% Ovalbumin and 0.2% Pluronic F-68.
Cell stocks were thawed in a 37° C. water bath. Cells were washed three times in PBS. The cells were counted and adjusted to 5×10EE3 cells/50 μl (1×10EE5 cells/ml) in Assay Medium. A 50 μl aliquot of cells was transferred to each well in the assay plate.
Stocks of the test compounds and reference compounds were diluted to a concentration of […] in Assay Medium. Compounds were diluted 10-fold to give the following concentrations: 2×10EE-6 M, 2×10EE-7 M, 2×10EE-8 M; 2×10EE-9 M, 2×10EE-10 M, 2×10EE-11 M, 2×10EE-12 M and 2×10EE-13 M. For each compound a blank assay medium control was also included.
A 50 μl aliquot of compound or blank was transferred from the dilution plate to the assay plate. Compounds were tested at the following final concentrations: 1×10EE-6 M, 1×10EE-7 M, 1×10EE-8 M; 1×10EE-9 M, 1×10EE-10 M, 1×10EE-11 M and 1×10EE-12 M and 1×10EE-13 M.
The assay plate was incubated for 3 h in a 5% CO2 incubator at 37° C. The assay plate was removed from the incubator and allowed to stand at room temperature for 15 min. A 100 μl aliquot of steadylite plus reagent was added to each well of the assay plate (reagent is light sensitive). Each assay plate was covered with aluminum foil to protect it from light and shaken for 30 min at room temperature. Each assay plate was read in a Perkin Elmer TopCount NXT instrument.
The data from the TopCount instrument was transferred to GraphPad Prism software. The software performed a non-linear regression (log(agonist) vs response-Variable slope (four parameter)). EC50 values were calculated by the software and reported in pM.

Data set [2] concerns the target T1, human GLP-1 receptor. As to the kind of experiment: GLP-1 receptor binding, 125I-GLP-1 displacement SPA on isolated membranes. The following applies: displacement of 125I-GLP-1 from membranes; read-out: IC50 GLP-1R. How it is done: The purpose of this assay was to test the in vitro receptor binding activity of the glucagon derivatives of the invention. The receptor binding is a measure of affinity of a compound for the human GLP-1 receptor.
The receptor binding of each compound to the human GLP-1 receptor was measured in a displacement binding assay. In this type of assay a labelled ligand (in this case 125I-GLP-1) is bound to the receptor. Each derivative was added in a series of concentrations to isolated membranes containing the human GLP-1 receptor and displacement of the labelled ligand was monitored. The receptor binding was reported as the concentration at which half of the labelled ligand was displaced from the receptor, the IC50 value.
In order to test the binding of the derivatives to albumin, the assay may be performed in a very low concentration of serum albumin (max. 0.001% final assay concentration) as well as in the presence of a higher concentration of serum albumin (2.0% final assay concentration). An increase of the IC50 value, in the presence of serum albumin indicates an affinity to serum albumin and represents a method to predict a protracted pharmacokinetic profile of the test substance in animal models.
The following chemicals were used in the assay: DMEM w/o phenol red (Gibco 11880-028), Pen/strep (Invitrogen 15140-122), G418 (Invitrogen 10131-027), 1 M Hepes (Gibco 15630), EDTA (Invitrogen 15575-038), PBS (Invitrogen 14190-094), fetal calf serum (Invitrogen 16140-071), EGTA, MgCl2 (Merck 1.05832.1000), Tween 20 (Amresco 0850C335), SPA particles (wheat germ agglutinin (WGA) SPA beads, Perkin Elmer RPNQ0001), [125I]-GLP-1]-(7-36)NH2 (produced in-house), OptiPlate™-96 (Perkin Elmer).
Buffer 1 consisted of 20 mM Na-HEPES plus 10 mM EDTA and pH was adjusted to 7.4.
Buffer 2 consisted of 20 mM Na-HEPES plus 0.1 mM EDTA and pH was adjusted to 7.4.
Assay buffer consisted of 50 mM HEPES supplemented with 5 mM EGTA, 5 mM MgCl2, 0.005% Tween 20 and pH was adjusted to 7.4.
The cells used in this assay (clone FCW467-12A) were BHK cells with BHKTS13 as a parent cell line. The cells express the human GLP-1 receptor.
The cells were grown at 5% CO2 in DMEM, 10% fetal calf serum, 1% Pen/Strep (Penicillin/Streptomycin) and 1.0 mg/ml of the selection marker G418. To make a membrane preparation the cells were grown to approximately 80% confluence. The cells were washed twice in phosphate-buffered saline and harvested. The cells were pelleted using a brief centrifugation and the cell pellet was kept on ice. The cell pellet was homogenised with ULTRA-THURRAX dispersing instrument for 20-30 sec in a suitable amount of buffer 1 (e.g. 10 ml). The homogenate was centrifuged for 15 min. The pellet was re-suspended (homogenised) in 10 ml buffer 2 and centrifuged. This step was repeated once more. The resulting pellet was re-suspended in buffer 2 and the protein concentration was determined. The membranes were aliquoted and stored at minus 80° C.
1. For the receptor binding assay, 50 μl of the assay buffer was added to each well of an assay plate.
2. Test compounds were serially diluted to give the following concentrations: 8×10EE-7 M, 8×10EE-8 M, 8×10EE-9 M, 8×10EE-10 M, 8×10EE-11 M, 8×10EE-12 M and 8×10EE-13 M. Twenty-five μl were added to appropriate wells in the assay plate.
3. Cell membrane aliquots were thawed and diluted to their working concentration. Fifty μl were added to each well in the assay plate.
4. WGA SPA beads were suspended in assay buffer at 20 mg/ml. The suspension was diluted to 10 mg/ml in assay buffer just prior to addition to the assay plate. Fifty μl were added to each well in the assay plate.
5. The incubation was started by adding 25 μl of 480 pM solution of [125I]-GLP-1]-(7-36)NH2 to each well of the assay plate. A 25 μl aliquot was reserved for measuring total counts/well.
6. The assay plate was incubated for 2 h at 30° C.
7. The assay plate was centrifuged for 10 min.
8. The assay plate was read in a Perkin Elmer TopCount NXT instrument. […]
For orientation: In a radioligand displacement assay an active substance lowers the binding of a labelled ligand.

Data set [3] can be described thus: Thioflavin T (ThT) fibrillation assay for physical stability. The format is physicochemical. The following applies: 250 μM in 10 mM HEPES buffer, pH 7.5, 37° C., shaking 960 rpm. Summed up: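 Peptide at 250 μM in 10 mM HEPES pH 7.5 with 1 μM ThT, at 37° C with 960 rpm orbital shaking. Fluorescence (ex 444/em 485 nm) read every 20 min after 10 min pre-incubation; sigmoidal fit gives lag time (t0−2τ) and kapp (1/τ). Recovery is RP-HPLC peptide in the centrifuged, 0.22 μm-filtered supernatant as % of initial.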

T1 sequence (P43220 24-463): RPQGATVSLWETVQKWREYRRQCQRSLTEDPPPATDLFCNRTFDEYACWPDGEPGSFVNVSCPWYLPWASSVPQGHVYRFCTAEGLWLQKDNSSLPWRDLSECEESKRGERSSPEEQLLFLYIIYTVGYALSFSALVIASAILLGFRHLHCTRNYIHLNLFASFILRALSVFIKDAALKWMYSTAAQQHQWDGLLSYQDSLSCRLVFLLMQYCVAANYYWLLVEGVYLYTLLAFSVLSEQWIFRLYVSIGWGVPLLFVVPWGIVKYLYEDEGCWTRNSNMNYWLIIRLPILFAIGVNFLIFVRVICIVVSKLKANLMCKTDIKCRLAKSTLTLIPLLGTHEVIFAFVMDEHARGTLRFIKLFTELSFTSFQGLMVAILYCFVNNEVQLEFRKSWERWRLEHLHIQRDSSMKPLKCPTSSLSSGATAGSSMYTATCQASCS

Take `CC(C)C[C@H](NC(=O)[C@H](Cc1ccc(O)cc1)NC(=O)[C@H](CCCNC(=N)N)NC(=O)[C@H](CO)NC(=O)[C@H](CC(C)C)NC(=O)[C@H](CC(=O)O)NC(=O)[C@H](CO)NC(=O)[C@@H](NC(=O)[C@H](Cc1ccccc1)NC(=O)[C@@H](NC(=O)CNC(=O)[C@H](CCC(N)=O)NC(=O)C(C)(C)NC(=O)[C@@H](N)Cc1c[nH]cn1)[C@@H](C)O)[C@@H](C)O)C(=O)N[C@@H](CC(=O)O)C(=O)N[C@@H](C)C(=O)N[C@@H](CCCNC(=N)N)C(=O)N[C@@H](CCCNC(=N)N)C(=O)N[C@@H](C)C(=O)N[C@@H](CCC(N)=O)C(=O)N[C@@H](CC(=O)O)C(=O)N[C@@H](Cc1ccccc1)C(=O)N[C@H](C(=O)N[C@@H](CCC(N)=O)C(=O)N[C@@H](Cc1c[nH]c2ccccc12)C(=O)N[C@@H](CC(C)C)C(=O)N[C@@H](CC(C)C)C(=O)N[C@@H](CCCCNC(=O)COCCOCCNC(=O)COCCOCCNC(=O)CC[C@H](NC(=O)CC[C@H](NC(=O)CC[C@H](NC(=O)CCCCCCCCCCCCCCCCC(=O)O)C(=O)O)C(=O)O)C(=O)O)C(=O)N[C@H](C(N)=O)[C@@H](C)O)C(C)C` [Example 64, N^ε28-[2-[2-[2-[[2-[2-[2-[[(4S)-4-carboxy-4-[[(4S)-4-carboxy-4-[[(4S)-4-carboxy-4-(17-carboxyheptadecanoylamino)butanoyl]amino]butanoyl]amino]butanoyl]amino]ethoxy]ethoxy]acetyl]amino]ethoxy]ethoxy]acetyl]-[Aib2,Leu10,Arg12,Ala16,Leu27,Lys28]-Glucagon amide] (H-H[Aib]QGTFTSDLSRYLDARRAQDFVQWLLK([AEEA-AEEA-γGlu-γGlu-γGlu-C18 diacid])T-NH2; N-terminus assumed): in data set [1], the concentration giving a half-maximal response (EC50) amounted to 3 pM. For the same compound, in data set [2], the IC50 worked out at 900 pM.
With `CC(C)C[C@H](NC(=O)[C@H](CC(=O)O)NC(=O)[C@H](CC(C)C)NC(=O)[C@H](Cc1ccc(O)cc1)NC(=O)[C@H](CCCCN)NC(=O)[C@H](CO)NC(=O)[C@H](CC(C)C)NC(=O)[C@H](CC(=O)O)NC(=O)[C@H](CO)NC(=O)[C@@H](NC(=O)[C@H](Cc1ccccc1)NC(=O)[C@@H](NC(=O)CNC(=O)[C@H](CCC(N)=O)NC(=O)C(C)(C)NC(=O)[C@@H](N)Cc1c[nH]cn1)[C@@H](C)O)[C@@H](C)O)C(=O)N[C@@H](CCCNC(=N)N)C(=O)N[C@@H](CCCNC(=N)N)C(=O)N[C@@H](C)C(=O)N[C@@H](CCC(N)=O)C(=O)N[C@@H](CC(=O)O)C(=O)N[C@@H](Cc1ccccc1)C(=O)N[C@H](C(=O)N[C@@H](CCC(N)=O)C(=O)N[C@@H](Cc1c[nH]c2ccccc12)C(=O)N[C@@H](CC(C)C)C(=O)N[C@@H](CC(C)C)C(=O)N[C@@H](CCCCNC(=O)CC[C@H](NC(=O)CC[C@H](NC(=O)[C@H](CO)NC(=O)[C@H](CCC(=O)O)NC(=O)[C@H](CO)NC(=O)CC[C@H](NC(=O)CC[C@H](NC(=O)CCCCCCCCCCCCCCCCC(=O)O)C(=O)O)C(=O)O)C(=O)O)C(=O)O)C(=O)N[C@H](C(N)=O)[C@@H](C)O)C(C)C` [Example 53, N^ε28-[(4S)-4-carboxy-4-[[(4S)-4-carboxy-4-[[(2S)-2-[[(2S)-4-carboxy-2-[[(2S)-2-[[(4S)-4-carboxy-4-[[(4S)-4-carboxy-4-(17-carboxyheptadecanoylamino)butanoyl]amino]butanoyl]amino]-3-hydroxypropanoyl]amino]butanoyl]amino]-3-hydroxypropanoyl]amino]butanoyl]amino]butanoyl]-[Aib2,Leu10,Leu16,Leu27,Lys28]-Glucagon amide] (H-H[Aib]QGTFTSDLSKYLDLRRAQDFVQWLLK([γGlu-γGlu-Ser-Glu-Ser-γGlu-γGlu-C18 diacid])T-NH2; N-terminus assumed), in data set [1], the EC50 was determined as 11 pM. This compound also gave a THT assay Lag time (Ex. 76) in data set [3] of 45 h.

The record behind these values is patent publication US9474790B2, “Stable, protracted GLP-1/glucagon receptor co-agonists for medical use” (Novo Nordisk A/S, priority 2013, dated 2016).
